Reference: patent EP4647433A1, “SHP2 INHIBITOR AND USES THEREOF” (Kanaph Therapeutics Inc., priority 2023, dated 2024)
Like-named read-outs stand apart in the source and are kept apart here.

Columns and labels:
phospho-ERK = phospho-ERK assay (AlphaLisa) in H358 cells; format: cell-based; details: Homo sapiens, NCI-H358, 1.5 hours incubation, read-out: pERK assay (IC50)
Procedure: H358 [20,000 cell/well] was contained in 40 µL of the cell culture solution (RPMI, 10% FBS, penicillin, streptomycin) and placed on a 384-well plate. After 24 hours, the serially diluted compound according to the Examples (concentration of minimum 0.13 nM, maximum 10 µM) was contained in 10 µL of the cell culture solution, put into wells containing cells, and incubated in a cell incubator for 1.5 hours. As a positive control group, the selective SHP2 inhibitor, TNO155 (Chemietek, US; concentration ranging from 0.13 nM to 10 µM) was used.
Thereafter, phospho-ERK was labeled using an AlphaLisa system from PerkinElmer according to the manufacturer's instructions, and then fluorescence (680 nm excitation wavelength, 615 nm emission wavelength) values were measured using a Varioskan equipment from Thermo. IC50 values were obtained using Graphad's Prism from the measured values depending on the concentration.
Intracellular SHP2 activity can be confirmed by measuring the degree of phosphorylation of ERK (extracellular signal regulated kinase), which represents Ras/Raf/ERK, a downstream signal pathway of SHP2. Inhibition of ERK phosphorylation by SHP2 inhibitors was confirmed through phospho-ERK analysis, which confirmed that the SHP2 inhibitors of the present disclosure have excellent activity in inhibiting ERK phosphorylation mediated by SHP2.

SHP2 = target: T1, SHP2 (Homo sapiens, UniProt Q06124); assay: Phosphatase assay (PTPase assay, DiFMUP substrate); format: biochemical
T1 construct: SHP2 (full length, diluted to 100 pM final concentration in reaction buffer, BPS bioscience, US); purchased BPS bioscience, US
T1 sequence (Q06124 1-593): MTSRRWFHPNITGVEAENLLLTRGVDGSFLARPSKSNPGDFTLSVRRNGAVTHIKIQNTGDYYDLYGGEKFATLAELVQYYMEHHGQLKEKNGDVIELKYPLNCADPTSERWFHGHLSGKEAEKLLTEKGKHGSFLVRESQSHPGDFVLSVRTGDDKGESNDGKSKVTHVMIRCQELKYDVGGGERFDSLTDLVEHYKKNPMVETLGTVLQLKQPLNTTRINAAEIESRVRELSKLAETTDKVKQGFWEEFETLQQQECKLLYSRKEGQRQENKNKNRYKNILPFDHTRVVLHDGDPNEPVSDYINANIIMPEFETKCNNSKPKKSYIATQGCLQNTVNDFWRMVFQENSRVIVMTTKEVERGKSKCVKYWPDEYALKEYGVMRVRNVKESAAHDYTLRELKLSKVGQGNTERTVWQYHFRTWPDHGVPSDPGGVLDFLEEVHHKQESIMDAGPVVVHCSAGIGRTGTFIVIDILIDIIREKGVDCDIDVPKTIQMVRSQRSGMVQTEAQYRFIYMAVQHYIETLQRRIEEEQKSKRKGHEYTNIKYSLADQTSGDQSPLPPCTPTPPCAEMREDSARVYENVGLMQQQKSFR
Procedure: IC50 values were measured using 6,8-difluoro-4-methylumbelliferyl phosphate (DiFMUP) as a substrate. The reaction was performed in a 384-well plate, and fluorescence measurement values were obtained using an EnVision plate reader from PerkinElmer.
SHP2 (full length, diluted to 100 pM final concentration in reaction buffer, BPS bioscience, US) was incubated with the SHP2 activating peptide in reaction buffer (60 mM HEPES (pH 7.2), 75 mM NaCl, 75 mM KCl, 1 mM EDTA, 5 mM DTT, 0.05% P-20) for 30 minutes to activate SHP2. After activation, DMSO [1% (V/V) or the compound according to the Examples (concentration ranging from 0.6 nM to 10 µM)] was added. As a positive control group, the selective SHP2 inhibitors SHP099 (6-(4-amino-4-methylpiperidin-1-yl)-3-(2,3-dichlorophenyl)pyrazin-2-amine, FOCUS bioscience, Austrailia; concentration ranging from 0.6 nM to 10 µM) and TNO155 ((3S,4S)-8-(6-amino-5-((2-amino-3-chloropyridin-4-yl)thio)pyrazin-2-yl)-3-methyl-2-oxa-8-azaspiro[4.5]decan-4-amine, Chemietek, US; concentration ranging from 0.6 nM to 10 µM) were used. [drawing 184]
DiFMUP (80 µM) was added to the reaction and incubated for a total of 2 hours to allow for the reaction to proceed. Thereafter, fluorescence (340 nm excitation, 450 nm emission) values were measured. IC50 values were obtained using Graphad's Prism from the measured values depending on the concentration.
In the phosphatase assay (PTPase assay), when an IC50 value was 100 nM or more, + was indicated, when an IC50 value was 3 nM or more and less than 100 nM, ++ was indicated, and when an IC50 value was less than 3 nM, +++ was indicated.

H358 cells = assay: Cell viability (3D spheroid, 3D CellTiter-Glo); format: cell-based; details: Homo sapiens, NCI-H358, 120 h; H358 spheroids, 5 days treatment
Procedure: Human non-small cell lung cancer cell line H358 cells were purchased from the Korean Cell Line Bank. Cancer cell lines were cultured in the recommended RPMI-1640 medium supplemented with 10% fetal bovine serum (FBS) and 1% penicillin/streptomycin. Monolayer-cultured cancer cell lines were detached by treatment with Trypsin/EDTA, and 100 µL of cell suspension containing 4 x 10^3 cells was each dispensed into SPL3D™ Cell Floater, 96-well round plate, through cell line counting. After culturing for 72 hours to form spheroid, the cells were individually treated with the compounds according to the Examples, which had been serially diluted (minimum 1.5 nM, maximum 10 µM in concentration), and then cultured in a cell incubator for 5 days. To analyze cell viability, the cells were treated with 50 uL of 3D CellTiter-Glo, stirred for 5 minutes at 500 rpm in a plate shaker from Thermo Fisher Scientific, and incubated for 25 minutes at room temperature. Then, the luminescent values were measured using a Varioskan equipment from Thermo Fisher Scientific. IC50 values were obtained using GraphPad's Prism from the measured values depending on the concentration.
In the cell viability assay, when an IC50 value was 50 nM or more, + was indicated, when an IC50 value was 10 nM or more and less than 50 nM, ++ was indicated, and when an IC50 value was less than 10 nM, +++ was indicated.

[1] = full length SHP2 100 pM activated with SHP2 activating peptide, DiFMUP 80 µM, 2 hours; read-out: PTPase assay (IC50)

| SMILES | IC50 (phospho-ERK) [nM] | IC50 (SHP2; [1]) [nM] | IC50 (H358 cells) [nM] | IC50 (SHP2; read-out: PTPase assay (IC50); full length SHP2 100 pM activated with SHP2 activating peptide, DiFMUP 80 µM, 2 hours) [nM] |
| --- | --- | --- | --- | --- |
| N[C@@H]1c2scnc2CC12CCN(c1cnc(Sc3ccc4nc[nH]c(=O)c4c3Cl)cn1)CC2 [Example 1, (S)-6-((5-(6-amino-4,6-dihydrospiro[cyclopenta[d]thiazole-5,4'-piperidin]-1'-yl)pyrazin-2-yl)thio)-5-chloroquinazolin-4(3H)-one] | < 45 | < 3 | – | – |
| CC(C)n1cnc2ccc(Sc3cnc(N4CCC5(CC4)Cc4ncsc4[C@H]5N)cn3)c(Cl)c2c1=O [Example 4, (S)-6-((5-(6-amino-4,6-dihydrospiro[cyclopenta[d]thiazole-5,4'-piperidin]-1'-yl)pyrazin-2-yl)thio)-5-chloro-3-isopropylquinazolin-4(3H)-one] | < 45 | < 3 | < 10 | – |
| COCCn1cnc2ccc(Sc3ncc(N4CCC5(CC4)Cc4ccccc4[C@H]5N)nc3N)c(Cl)c2c1=O [Example 8, (S)-6-((3-amino-5-(1-amino-1,3-dihydrospiro[indene-2,4'-piperidin]-1'-yl)pyrazin-2-yl)thio)-5-chloro-3-(2-methoxyethyl)quinazolin-4(3H)-one] | < 45 | < 3 | – | – |
| COC(C)Cn1cnc2ccc(Sc3ncc(N4CCC5(CC4)Cc4ccccc4[C@H]5N)nc3N)c(Cl)c2c1=O (stereo partly drawn) [Example 9, 6-((3-amino-5-((S)-1-amino-1,3-dihydrospiro[indene-2,4'-piperidin]-1'-yl)pyrazin-2-yl)thio)-5-chloro-3-(2-methoxypropyl)quinazolin-4(3H)-one] | < 45 | < 3 | – | – |
| Cn1cnc2ccc(Sc3cnc(N4CCC5(CC4)Cc4ncsc4[C@H]5N)cn3)c(Cl)c2c1=O [Example 2, (S)-6-((5-(6-amino-4,6-dihydrospiro[cyclopenta[d]thiazole-5,4'-piperidin]-1'-yl)pyrazin-2-yl)thio)-5-chloro-3-methylquinazolin-4(3H)-one] | < 45 | – | < 10 | < 3 |
| CCn1cnc2ccc(Sc3cnc(N4CCC5(CC4)Cc4ncsc4[C@H]5N)cn3)c(Cl)c2c1=O [Example 3, (S)-6-((5-(6-amino-4,6-dihydrospiro[cyclopenta[d]thiazole-5,4'-piperidin]-1'-yl)pyrazin-2-yl)thio)-5-chloro-3-ethylquinazolin-4(3H)-one] | < 45 | < 3 | < 10 | – |

Further lines, with some results ahead:

| IC50 (phospho-ERK) [nM] | IC50 (SHP2; [1]) [nM] | IC50 (H358 cells) [nM] | SMILES | IC50 (SHP2; read-out: PTPase assay (IC50); full length SHP2 100 pM activated with SHP2 activating peptide, DiFMUP 80 µM, 2 hours) [nM] |
| --- | --- | --- | --- | --- |
| 45 to 1500 | < 3 | 10 to 50 | COC(C)(C)C(F)n1cnc2ccc(Sc3cnc(N4CCC5(CC4)CO[C@@H](C)[C@H]5N)cn3)c(Cl)c2c1=O (stereo partly drawn) [Example 28, 6-((5-((3S,4S)-4-amino-3-methyl-2-oxa-8-azaspiro[4.5]decan-8-yl)pyrazin-2-yl)thio)-5-chloro-3-(1-fluoro-2-methoxy-2-methylpropyl)quinazolin-4(3H)-one] | – |
| 45 to 1500 | < 3 | 10 to 50 | COC(C)Cn1c(C)nc2ccc(Sc3cnc(N4CCC5(CC4)CO[C@@H](C)[C@H]5N)cn3)c(Cl)c2c1=O (stereo partly drawn) [Example 39, 6-((5-((3S,4S)-4-amino-3-methyl-2-oxa-8-azaspiro[4.5]decan-8-yl)pyrazin-2-yl)thio)-5-chloro-3-(2-methoxypropyl)-2-methylquinazolin-4(3H)-one] | – |
| < 45 | < 3 | – | Cn1cnc2ccc(Sc3ncc(N4CCC5(CC4)Cc4ccccc4[C@H]5N)nc3N)c(Cl)c2c1=O [Example 10] | – |
| – | < 3 | 10 to 50 | C[C@@H]1OCC2(CCN(c3cnc(Sc4ccc5ncn(CC6(C)CCOCC6)c(=O)c5c4Cl)cn3)CC2)[C@@H]1N [Example 23, 6-((5-((3S,4S)-4-amino-3-methyl-2-oxa-8-azaspiro[4.5]decan-8-yl)pyrazin-2-yl)thio)-5-chloro-3-((4-methyltetrahydro-2H-pyran-4-yl)methyl)quinazolin-4(3H)-one] | – |
| – | 3 to 100 | < 10 | C[C@@H]1OCC2(CCN(c3cnc(Sc4ccc5ncn(CC6CCN(C)CC6)c(=O)c5c4Cl)cn3)CC2)[C@@H]1N [Example 26, 6-((5-((3S,4S)-4-amino-3-methyl-2-oxa-8-azaspiro[4.5]decan-8-yl)pyrazin-2-yl)thio)-5-chloro-3-((1-methylpiperidin-4-yl)methyl)quinazolin-4(3H)-one] | – |
